Measured values published in patent publication US12447159B2 (AELIS FARMA, priority 2018, dated 2025).
Marks after values point to notes of the source that are not given here. Each block holds one compound with its values, some of them ahead of it.

Columns and labels:
[1] = Metabolic profiling of [3H]-3pMBP in plasma and excreta in the rat (Radio-HPLC); conditions: in vivo
Procedure: The metabolic profile was evaluated in plasma, in urines and feces and the radio-labelled metabolites were identified by their retention time using Radio-HPLC analysis. The results are expressed as % of the sum of all the detected peak areas.

[2] = tested on: diet-induced obese (DIO) mouse model; experiment: Repeated treatment: food intake and body weight in diet-induced obese (DIO) mice; type: in vivo; conditions: for Inhibition of food-intake and body weight (repeated administration): Effect (Rimonabant): 10 mg/kg
Procedure: Male C57BL/6J mice were fed ad libitum with a high-fat diet (HFD) for 8 weeks before the start of the pharmacological treatments. During pharmacological treatments, the HFD was maintained and food intake and body weight were measured daily. The food consumed was calculated by subtracting the food left in the hoppers from the initial pre-weighted amount. […] 3pMBP and rimonabant were administered by oral gavage once a day, two hours before the start of the dark phase of the light/dark cycle.

[3] = tested on: THC dependent mice; experiment: Precipitated withdrawal in mice chronically treated with THC; type: in vivo; conditions: mouse, in vivo
Procedure: The chronic THC regimen (20 mg/kg, twice a day) used in these experiments has been chosen because it mimics heavy marijuana use (Cook et al., 1998) and is considered as a model of cannabinoids dependence in mice (Cutando et al., 2013; Hutcheson et al., 1998). […] From day 1 to 4-5, mice were injected ip with vehicle or THC (20 mg/kg in NaCl 0.9% containing 2% ethanol and 2% Tween80, 10 ml/kg) twice a day. […] All the other animals received the administration of the respective vehicle. […] The dose and schedule of administration of rimonabant chosen for this study has been commonly used to precipitate THC withdrawal in mice (Cook et al. 1998, Hutcheson et al., 1998, Huang et al., 2009).
For the measure of precipitated withdrawal, mice were placed in a novel home cage and a video camera positioned in front of each cage recorded animals' behaviors. Scoring was performed for 1 minute every 5 min-period. Two withdrawal signs were analyzed: paw tremors and head shaking, since they are the most common signs of THC withdrawal observed in mice (Cook et al. 1998, Hutcheson et al., 1998, Lichtman et al., 2001).

[4] = tested on: anxiety- and depression-related behaviors in mice; experiment: Repeated administration: anxiety- and depression-related behaviors (elevated plus maze, sucrose preference test); type: in vivo; conditions: for Increase in anxiety and depression related behaviors (repeated administration): Effect (Rimonabant): 28 days, 10 mg/kg
Procedure: The EPM apparatus was made of four elevated arms arranged in a cross-like disposition, with two opposite arms being enclosed by walls and the two other arms being open. For all the experiments, after receiving the appropriate treatment mice were placed in the center of the EPM and let free to explore the maze for 5 minutes. The time spent and the number of entries into the open arms and closed arms were measured by an automatic videotracking system. A decrease in the percentages of visits and/or of the time spent in open arms is considered an index of increase in anxiety levels.
The sucrose preference test was performed in the home cage of the mice. Two identical bottles, one containing water and the other one containing a 2%-sucrose solution were placed in the hopper of each home cage. […] The volumes of water and of sucrose solutions drank by the mice were measured over two 1.30 h intervals, the first between 7.00 pm and 8.30 pm and the second between 8.30 pm and 10.00 pm. At each time point, the bottles were weighed and the intake volume was calculated by subtracting the initial bottle weight to the final bottle weight.
At day 26, mice were subjected to the EPM and at day 28 to the sucrose preference test.

[5] = tested on: diet-induced obese (DIO) mouse model; experiment: Repeated treatment: food intake and body weight in diet-induced obese (DIO) mice; type: in vivo; conditions: vs vehicle; Rimo 10 mg/kg ip; 3pMBP 0.005-15 mg/kg per os
[6] = tested on: corticosterone; conditions: from Steiner et al., 2008, cited from earlier work
[7] = at doses quite close to the therapeutic dose; cited from earlier work
[8] = tested on: central benzodiazepine receptor; experiment: Binding selectivity, ligand displacement; conditions: 10 μM
Excerpt: (§1) The CEREP High-throughput profile consists of a broad collection of 80 transmembrane and soluble receptors, ion channels and G-Protein coupled receptors.

[9] = molecular target: T1, peripheral benzodiazepine receptor (Rattus norvegicus, UniProt P16257); experiment: Binding selectivity, ligand displacement; conditions: 10 μM
T1 construct: CEREP
Excerpt: as §1

[10] = molecular target: T2, progesterone receptor (Homo sapiens, UniProt P06401); experiment: Binding selectivity, ligand displacement; conditions: 10 μM
T2 construct: CEREP
T2 sequence (P06401 whole entry): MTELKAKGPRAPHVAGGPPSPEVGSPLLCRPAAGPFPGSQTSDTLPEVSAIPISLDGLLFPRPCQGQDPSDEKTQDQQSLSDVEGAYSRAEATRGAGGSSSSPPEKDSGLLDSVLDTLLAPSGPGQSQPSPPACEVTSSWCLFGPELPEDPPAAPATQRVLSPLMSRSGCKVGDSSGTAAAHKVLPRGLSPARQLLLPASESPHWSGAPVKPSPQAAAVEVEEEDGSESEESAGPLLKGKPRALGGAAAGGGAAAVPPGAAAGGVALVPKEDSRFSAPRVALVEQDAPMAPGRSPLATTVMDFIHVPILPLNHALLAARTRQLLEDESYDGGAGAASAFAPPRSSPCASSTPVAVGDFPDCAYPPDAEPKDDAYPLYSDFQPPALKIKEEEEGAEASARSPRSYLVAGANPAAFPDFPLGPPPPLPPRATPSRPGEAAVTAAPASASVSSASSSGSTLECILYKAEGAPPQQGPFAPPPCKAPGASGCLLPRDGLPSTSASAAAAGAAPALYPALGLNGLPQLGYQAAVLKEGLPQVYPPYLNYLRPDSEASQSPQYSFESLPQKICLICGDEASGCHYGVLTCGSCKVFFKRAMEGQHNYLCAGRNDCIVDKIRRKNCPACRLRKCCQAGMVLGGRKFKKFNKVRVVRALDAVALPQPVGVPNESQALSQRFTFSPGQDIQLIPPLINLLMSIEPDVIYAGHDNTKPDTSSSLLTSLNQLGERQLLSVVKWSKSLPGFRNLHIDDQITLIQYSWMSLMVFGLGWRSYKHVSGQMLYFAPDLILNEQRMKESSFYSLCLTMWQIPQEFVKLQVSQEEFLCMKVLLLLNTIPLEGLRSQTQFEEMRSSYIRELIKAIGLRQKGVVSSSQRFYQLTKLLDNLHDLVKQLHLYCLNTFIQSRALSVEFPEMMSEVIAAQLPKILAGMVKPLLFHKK
Excerpt: as §1

[11] = male mice, listed as rimonabant
[12] = vs reference ID100 for rimonabant effects = 10 mg/kg
[13] = 28 days once a day, 3pMBP 0.05, 5, 15 mg/kg per os, Rimo 10 mg/kg ip

SMILES: COc1ccc(CO[C@H]2CC[C@@]3(C)C(=CC[C@H]4[C@@H]5CC[C@H](C(C)=O)[C@@]5(C)CC[C@@H]43)C2)cc1 [[^3H]-3pMBP]
Major metabolites in plasma [1]: does not produce any major metabolites in plasma

IC100 [3]: 10 mg/kg
Percentage of time spent in the open arms of the elevated plus maze [4, 13]: decreases the time spent in open arms
Sucrose intake (sucrose preference test) [4, 13]: decreases sucrose intake
IC100 ([4]; Rimonabant, male mice): 10 mg/kg
Increase in anxiety and depression related behaviors (repeated administration): Effect (Rimonabant) ([4]; male mice): Yes
N fold IC100 [4, 12]: 1
SMILES: Cc1c(C(=O)NN2CCCCC2)nn(-c2ccc(Cl)cc2Cl)c1-c1ccc(Cl)cc1 [Rimonabant, rimonabant]
IC100 ([2]; Rimonabant, male mice): 10 mg/kg
Inhibition of food-intake and body weight (repeated administration): Effect (Rimonabant) ([2]; male mice): Yes
Inhibition of food-intake and body weight (repeated administration): Effect (Rimonabant) [2, 11]: decreased both food intake and body weight
N fold IC100 [2, 12]: 1
Food intake in obese mice ([2]; vs vehicle, Rimo 10 mg/kg ip, 3pMBP 0.005-15 mg/kg per os): decreases food intake
Percentage of visits in the open arms of the elevated plus maze [4, 13]: decreases the percentage of visits in open arms
Increase in anxiety and depression related behaviors (repeated administration): Effect (Rimonabant) [4, 11]: increased anxiety and depression-related behavior
Body weight in obese mice [5]: decreases body weight
IC100 ([6]; Rimonabant): 2 mg/kg
Increase in glucocorticoid secretion: Effect (Rimonabant) ([6]; mice): Yes
N fold IC100 ([6]; vs reference ID100 for rimonabant = 10 mg/kg): 0.2^#
Adverse events in GLP safety and toxicity studies [7]: clonic convulsion, hepatotoxicity and several profound alterations in behavior

displacement of binding [8]: > 40%
displacement of binding [9]: > 40%
displacement of binding [10]: > 80%
SMILES: CC(=O)[C@H]1CC[C@H]2[C@@H]3CC=C4C[C@@H](O)CC[C@]4(C)[C@H]3CC[C@]12C [pregnenolone]
